# Measured values as given in US4618669A, “S-(carbamoyl-phenylselenyl) derivatives of glutathione and of aminomercaptocarboxylic acids” (A. Nattermann & Cie GmbH, priority 1984, dated 1986).
# Assay: Glutathione-peroxidase-like activity, reaction rates by the method of A. Wendel
# Assay type: biochemical
# Settings: 1 millimolar concentration of glutathione with tert-butylhydroperoxide
row,SMILES,reaction rate
1,N[C@@H](CCC(=O)N[C@@H](CS[Se]c1ccccc1C(=O)Nc1ccccc1)C(=O)NCC(=O)O)C(=O)O [S-(2-Phenylcarbamoyl-phenylselenyl)-L-glutathione],"1,17×10^6 units per mol"

# Assay: as above
# Assay type: biochemical
# Settings: relative to S-(2-phenylcarbamoyl-phenylselenyl) glutathione, taken as 100%; tert-butylhydroperoxide; in vitro
# Protocol: The measuring of the glutathione peroxidase-like activity is carried out by the method of A. Wendel (A. Wendel, Methods in Enzymology, vol. 77, 325-333 (1981)). In this experiment, the reaction of the co-substrate nicotine […]-dinucleotide-phosphate is measured. The reducing agent in this case is not glutathione, but the […] containing aminoacid which has been used for the synthesis of the respective compounds. […] In in vitro-experiments, the catalysis of the peroxidase destruction has been examined. It was found, that the compounds of the present invention can replace the glutathioneperoxidase. [drawing 5] The reaction rates were measured by the method of A. Wendel (A. Wendel, Methods in Enzymology, vol. 77, pages 325-333 (1981)).
row,SMILES,catalytic activity (%)
1,N[C@@H](CS[Se]c1ccccc1C(=O)NCc1ccccc1)C(=O)O [S-(2-Benzylcarbamoyl-phenylselenyl)-L-cysteine],56%
2,NC(CCC(=O)NC(CS[Se]c1cc(F)ccc1C(=O)Nc1ccccc1)C(=O)NCC(=O)O)C(=O)O [S-(2-Phenylcarbamoyl-5-fluoro-phenylselenyl)-L-glutathione],92%
3,N[C@@H](CS[Se]c1ccccc1C(=O)Nc1ccccc1)C(=O)O [S-(2-Phenylcarbamoyl-phenylselenyl)-L-cysteine],210%
4,N[C@@H](CCC(=O)N[C@@H](CS[Se]c1ccccc1C(=O)Nc1ccccc1)C(=O)NCC(=O)O)C(=O)O [S-(2-Phenylcarbamoyl-phenylselenyl)-L-glutathione],100%
5,CC(=O)N[C@@H](CS[Se]c1ccccc1C(=O)Nc1ccccc1)C(=O)O [S-(2-Phenylcarbamoyl-phenylselenyl)-N-acetyl-L-cysteine],40%
6,NC(CCC(=O)NC(CS[Se]c1cc(Cl)ccc1C(=O)Nc1ccccc1)C(=O)NCC(=O)O)C(=O)O [S-(2-phenylcarbamoyl-5-chlor-phenylselenyl)-L-glutathione],99%
7,COc1ccc(C(=O)Nc2ccccc2)c([Se]SCC(NC(=O)CCC(N)C(=O)O)C(=O)NCC(=O)O)c1 [S-(2-phenylcarbamoyl-5-methoxy-phenylselenyl)-L-glutathione],63%
8,COc1cccc(C(=O)Nc2ccccc2)c1[Se]SC[C@H](N)C(=O)O [S-(2-phenylcarbamoyl-6-methoxy-phenylselenyl)-L-cysteine],440%
9,COc1cccc(C(=O)Nc2ccccc2)c1[Se]SCC(NC(=O)CCC(N)C(=O)O)C(=O)NCC(=O)O [S-(2-phenylcarbamoyl-6-methoxy-phenylselenyl)-L-glutathione],225%
10,CC(C)(S[Se]c1ccccc1C(=O)Nc1ccccc1)[C@@H](N)C(=O)O [S-(2-phenylcarbamoyl-phenylselenyl)-D-penicillamine],25%
11,COc1ccccc1NC(=O)c1ccccc1[Se]SCC(NC(=O)CCC(N)C(=O)O)C(=O)NCC(=O)O [S--[2-(2-methoxyphenylcarbamoyl)-phenylselenyl]-L--glutathione],37%
12,NC(CCC(=O)NC(CS[Se]c1ccccc1C(=O)Nc1ccccc1Cl)C(=O)NCC(=O)O)C(=O)O [S-[2-(2-chlorphenylcarbamoyl)-phenylselenyl]-L-glutathione],39%
13,"N[C@@H](CCC(=O)N[C@@H](CS[Se]c1ccccc1C(=O)Nc1ccc(Cl)c(Cl)c1)C(=O)NCC(=O)O)C(=O)O [S-[2-(3,4-Dichlorophenylcarbamoyl)-phenylselenyl]-L-glutathione]",21%
14,NC(CCC(=O)NC(CS[Se]c1ccccc1C(=O)Nc1cccc(F)c1)C(=O)NCC(=O)O)C(=O)O [S-[2-(3-fluorophenylcarbamoyl)-phenylselenyl]-L-glutathione],113%
15,NC(CCC(=O)NC(CS[Se]c1ccccc1C(=O)Nc1ccc(Cl)cc1)C(=O)NCC(=O)O)C(=O)O [S-[2-(4-Chlorophenylcarbamoyl)-phenylselenyl]-L-glutathione],116%
16,COc1ccc(NC(=O)c2ccccc2[Se]SCC(NC(=O)CCC(N)C(=O)O)C(=O)NCC(=O)O)cc1 [S-[2-(4-Methoxyphenylcarbamoyl)-phenylselenyl]-L-glutathione],124%
17,CC(=O)N[C@@H](CS[Se]c1ccccc1C(=O)Nc1ccc(F)cc1)C(=O)O [S-[2-(4-fluorophenylcarbamoyl)-phenylselenyl]-N-acetyl-L-cysteine],61%
18,NC(CCC(=O)NC(CS[Se]c1ccccc1C(=O)Nc1ccc([N+](=O)[O-])cc1)C(=O)NCC(=O)O)C(=O)O [S-[2-(4-nitrophenylcarbamoyl)-phenylselenyl]-L-glutathione],121%
19,NC(CCC(=O)NC(CS[Se]c1ccccc1C(=O)Nc1ccc(C(F)(F)F)cc1)C(=O)NCC(=O)O)C(=O)O [S-[2-(4-trifluormethylphenylcarbamoyl)-phenylselenyl]-L-glutathione],49%
